Literature values in patent US8555875B2, “Inhalation devices and related methods for administration of sedative hypnotic compounds” (Map Pharmaceuticals, Inc., priority 2008, dated 2013).

What was measured:
[1] = in vivo
[2] = in vivo; remark: listed apart in the source
[3] = test system: melatonin receptor MT1/MT2; details: metabolite MII versus ramelteon

Row | SMILES | Duration of Action [1] [h] | Half Life [2] [h] | mean functional activity, times lower potency than ramelteon [3] [times]
1 | CN1CCN(C(=O)OC2c3nccnc3C(=O)N2c2ccc(Cl)cn2)CC1 (single isomer, unassigned) [Eszopiclone, 6-(5-chloro-2-pyridyl)-5[(4-methyl-1-piperazinyl)carbonyloxy]-7-oxo-6,7-di hydro-5H-pyrrolo[3,4-b]pyrazine] | 8 | 6 | 
2 | Cc1nnc2n1-c1ccc(Cl)cc1C(c1ccccc1)=NC2 [Alprazolam] | <6 | 9 to 14 | 
3 | CNC1=Nc2ccc(Cl)cc2C(c2ccccc2)=[N+]([O-])C1 [Chlordiazepoxide] |  | 7 to 13 | 
4 | O=C1CN=C(c2ccccc2Cl)c2cc([N+](=O)[O-])ccc2N1 [Clonazepam] | 24 to 28 | 18 to 28 | 
5 | CN1C(=O)CN=C(c2ccccc2)c2cc(Cl)ccc21 [Diazepam] | 24 to 28 |  | 
6 | CCN(CC)CCN1C(=O)CN=C(c2ccccc2F)c2cc(Cl)ccc21 [Flurazepam] | 24 to 28 | 50 to 100 | 
7 | O=C1Nc2ccc(Cl)cc2C(c2ccccc2Cl)=NC1O (centres unmarked) [Lorazepam] | 12 to 18 | 9 to 19 | 
8 | CN1C(=O)C(O)N=C(c2ccccc2Cl)c2cc(Cl)ccc21 (centres unmarked) [Lormetazepam] | 12 to 18 | 10 | 
9 | CC(O)C(=O)NCCC1CCc2ccc3c(c21)CCO3 (centres unmarked) [MII] |  |  | 21
10 | Cc1ncc2n1-c1ccc(Cl)cc1C(c1ccccc1F)=NC2 [Midazolam] | 4 | 1.3 to 2.5 | 
11 | O=C1CN=C(c2ccccc2)c2cc([N+](=O)[O-])ccc2N1 [Nitrazepam] | 24 | 28 | 
12 | CN1C(=O)C(O)N=C(c2ccccc2)c2cc(Cl)ccc21 (centres unmarked) [Temazepam] | 12 to 18 |  | 
13 | Cc1nnc2n1-c1ccc(Cl)cc1C(c1ccccc1Cl)=NC2 [Triazolam] | <6 | 2 to 4 | 
14 | Cc1ccc(-c2nc3ccc(C)cn3c2CC(=O)N(C)C)cc1 [Zolpidem] | <4 |  | 
